From patent US20080274522A1, “METHOD FOR THE PRODUCTION OF 2-BUTANONE” (priority 2007, published 2008)
Where two headings read alike, the source gives them in different places.

Experiments:
[1] = system: Lactobacillus plantarum PN0512; test: Growth of L. plantarum PN0512 in the presence of butanols at different temperatures (OD600); assay type: cell-based; parameters: key to Growth of L. plantarum PN0512 in the presence of 1-butanol / Growth of L. plantarum PN0512 in the presence of isobutanol / Growth of L. plantarum PN0512 in the presence of 2-butanol: +: growth observed as an increase in OD600.; −: no growth observed, i.e. no change in OD600
Experimental: Tolerance levels of bacterial strain Lactobacillus plantarum PN0512 (ATCC # PTA-7727) were determined at 25° C., 30° C. and 37° C. as follows. The strain was cultured in S30L medium (i.e., 10 mM ammonium sulfate, 5 mM potassium phosphate buffer, pH 7.0, 50 mM MOPS, pH 7.0, 2 mM MgCl2, 0.7 mM CaCl2, 50 μM MnCl2, 1 μM FeCl3, 1 μM ZnCl2, 1.72 μM CuCl2, 2.53 μM COCl2, 2.42 μM Na2MoO4, 2 μM thiamine hydrochloride, 10 mM glucose, and 0.2% yeast extract). An overnight culture in the absence of any test compound was started in 15 mL of the S30L medium in a 150 mL flask, with incubation at 37° C. in a shaking water bath. The next morning, the overnight culture was diluted into three 500 mL flasks containing 150 mL of fresh medium to an initial OD600 of about 0.08. Each flask was incubated in a shaking water bath, one each at 25° C., 30° C. and 37° C. Each large culture was allowed to acclimate at the test temperature for at least 0.5 h. […] Growth was followed by measuring OD600 for six hours after addition of the compounds.

E. coli (strain MG1655) = settings: for % Survival at 30° C. / % Survival at 37° C. / % Survival at 0° C.: 1 h; for Concentration at which E. coli cells were killed: one hour
Experimental: (§1) Using overnight cultures or cells from plates, 30 mL cultures of the microorganisms to be tested were started in the following culture media: • E. coli—Miller's LB medium (Teknova, Half Moon Bay, Calif.): • L. plantarum PN0512—Lactobacilli MRS Broth (BD Diagnostic Systems, Sparks, Md.). The E. coli and L. plantarum cultures were grown at 37° C. aerobically with shaking until the cultures were in log phase and the OD600 was between 0.6 and 0.8. A 50 μL aliquot of each culture was removed for a time zero sample. The remainder of the cultures was divided into six 5 mL portions and placed in six small incubation flasks or tubes. […] The flasks or tubes were incubated at a desired temperature, aerobically without shaking for 1 h. After the incubation with one of the butanols, 2 μL from each of the flasks (and in addition 2 μL of the time zero sample of the culture before exposure to one of the butanols) were pipetted into the “head” wells of a 96 well (8×12) microtiter plate, each containing 198 μL of LB medium to give a 10^−2 dilution of the culture. Subsequently, 10^−3, 10^−4, 10^−5, and 10^−6 serial dilutions of the cultures were prepared as follows. The 10^−3 dilution was prepared by pipetting 20 μL of the sample from the head well into the 180 μL LB medium in the next well using a multi-channel pipette. This procedure was repeated 3 more times on successive wells to prepare the 10^−4, 10^−5, and 10^−6 dilutions. After each liquid transfer, the solution in the well was mixed by pipetting it up and down 10 times with the multi-channel pipetor. A 5 μL aliquot of each dilution was spotted onto an LB plate using a multi-channel pipette starting with the 10^−6 dilution, then the 10^−5, and so on working from more to less dilute without a change of tips. The spots were allowed to soak into the agar by leaving the lid of the plate slightly open for 15 to 30 min in a sterile transfer hood. The plates were covered, inverted, and incubated overnight at 37° C. The following day, the number of colonies in the spots were counted from the different dilutions. The number of living cells/mL in each of the original culture solutions from which the 2 μL was withdrawn was calculated and compared to the number of cells in the control untreated culture to determine the % of the cells surviving.

[2] = system: L. plantarum (strain PN0512); settings: for % Survival at 37° C. / % Survival at 23° C. / % Survival at 0° C.: 1 h; for Concentration at which L. plantarum PN0512 cells were killed: one hour
Experimental: as §1

1-butanol
Growth of L. plantarum PN0512 in the presence of 1-butanol ([1]; 1.0 % w/v, 37° C.): + | Growth of L. plantarum PN0512 in the presence of 1-butanol ([1]; 1.2 % w/v, 37° C.): + | Growth of L. plantarum PN0512 in the presence of 1-butanol ([1]; 1.4 % w/v, 37° C.): + | Growth of L. plantarum PN0512 in the presence of 1-butanol ([1]; 1.5 % w/v, 25° C.): + | Growth of L. plantarum PN0512 in the presence of 1-butanol ([1]; 1.5 % w/v, 30° C.): + | Growth of L. plantarum PN0512 in the presence of 1-butanol ([1]; 1.5 % w/v, 37° C.): + | Growth of L. plantarum PN0512 in the presence of 1-butanol ([1]; 1.6 % w/v, 37° C.): + | Growth of L. plantarum PN0512 in the presence of 1-butanol ([1]; 1.8 % w/v, 37° C.): + | Growth of L. plantarum PN0512 in the presence of 1-butanol ([1]; 2.0 % w/v, 25° C.): + | Growth of L. plantarum PN0512 in the presence of 1-butanol ([1]; 2.0 % w/v, 30° C.): + | Growth of L. plantarum PN0512 in the presence of 1-butanol ([1]; 2.0 % w/v, 37° C.): + | Growth of L. plantarum PN0512 in the presence of 1-butanol ([1]; 2.1 % w/v, 37° C.): + | Growth of L. plantarum PN0512 in the presence of 1-butanol ([1]; 2.2 % w/v, 37° C.): + | Growth of L. plantarum PN0512 in the presence of 1-butanol ([1]; 2.3 % w/v, 37° C.): + | Growth of L. plantarum PN0512 in the presence of 1-butanol ([1]; 2.4 % w/v, 25° C.): + | Growth of L. plantarum PN0512 in the presence of 1-butanol ([1]; 2.4 % w/v, 30° C.): + | Growth of L. plantarum PN0512 in the presence of 1-butanol ([1]; 2.4 % w/v, 37° C.): −^2 | Growth of L. plantarum PN0512 in the presence of 1-butanol ([1]; 2.7 % w/v, 30° C.): + | Growth of L. plantarum PN0512 in the presence of 1-butanol ([1]; 2.7 % w/v, 37° C.): − | Growth of L. plantarum PN0512 in the presence of 1-butanol ([1]; 2.9 % w/v, 25° C.): + | Growth of L. plantarum PN0512 in the presence of 1-butanol ([1]; 2.9 % w/v, 30° C.): − | Growth of L. plantarum PN0512 in the presence of 1-butanol ([1]; 2.9 % w/v, 37° C.): − | Growth of L. plantarum PN0512 in the presence of 1-butanol ([1]; 3.1 % w/v, 25° C.): + | Growth of L. plantarum PN0512 in the presence of 1-butanol ([1]; 3.1 % w/v, 30° C.): − | Growth of L. plantarum PN0512 in the presence of 1-butanol ([1]; 3.1 % w/v, 37° C.): − | Growth of L. plantarum PN0512 in the presence of 1-butanol ([1]; 3.2 % w/v, 25° C.): − | Growth of L. plantarum PN0512 in the presence of 1-butanol ([1]; 3.2 % w/v, 30° C.): − | Growth of L. plantarum PN0512 in the presence of 1-butanol ([1]; 3.3 % w/v, 25° C.): − | Growth of L. plantarum PN0512 in the presence of 1-butanol ([1]; 3.4 % w/v, 25° C.): − | Growth of L. plantarum PN0512 in the presence of 1-butanol ([1]; 3.4 % w/v, 30° C.): − | Concentration in which growth was observed ([1]; 25° C.): 3.1% | Concentration in which growth was not observed ([1]; 30° C.): 2.9% | Concentration in which growth was observed ([1]; 30° C.): 2.7% | Concentration in which growth was not observed ([1]; 37° C.): 2.4% | Concentration in which growth was observed ([1]; 37° C.): 2.3% | Growth of L. plantarum PN0512 in the presence of 1-butanol ([1]; […] w/v, 37° C.): − | Concentration with no toxic effect on E. coli cells (E. coli (strain MG1655); 0° C., one hour treatment): ≤ 4.5 % v/v | % Survival at 30° C. (E. coli (strain MG1655); 1-butanol 1 % v/v): 100% | % Survival at 37° C. (E. coli (strain MG1655); 1-butanol 1 % v/v): 72% | % Survival at 30° C. (E. coli (strain MG1655); 1-butanol 1.5 % v/v): 100% | % Survival at 37° C. (E. coli (strain MG1655); 1-butanol 1.5 % v/v): 20% | % Survival at 30° C. (E. coli (strain MG1655); 1-butanol 2 % v/v): 100% | % Survival at 37° C. (E. coli (strain MG1655); 1-butanol 2 % v/v): 0% | % Survival at 0° C. (E. coli (strain MG1655); 1-butanol 3 % v/v): 100% | % Survival at 30° C. (E. coli (strain MG1655); 1-butanol 3 % v/v): 0% | % Survival at 37° C. (E. coli (strain MG1655); 1-butanol 3 % v/v): 0% | % Survival at 0° C. (E. coli (strain MG1655); 1-butanol 4 % v/v): 100% | % Survival at 0° C. (E. coli (strain MG1655); 1-butanol […] v/v): 100% | % Survival at 37° C. (E. coli (strain MG1655); 1-butanol […] v/v): 0% | Concentration at which E. coli cells were killed (E. coli (strain MG1655); 30° C.): 3 % v/v | Concentration at which E. coli cells were killed (E. coli (strain MG1655); 37° C.): 2 % v/v | Concentration with no toxic effect on L. plantarum PN0512 cells ([2]; 0° C., one hour treatment): ≤ 4.5 % v/v | % Survival at 37° C. ([2]; 1-butanol 1 % v/v): 80% | % Survival at 37° C. ([2]; 1-butanol 1.5 % v/v): 58% | % Survival at 23° C. ([2]; 1-butanol 2 % v/v): 100% | % Survival at 37° C. ([2]; 1-butanol 2 % v/v): 29% | % Survival at 0° C. ([2]; 1-butanol 3 % v/v): 100% | % Survival at 23° C. ([2]; 1-butanol 3 % v/v): 82% | % Survival at 37° C. ([2]; 1-butanol 3 % v/v): 0% | % Survival at 0° C. ([2]; 1-butanol 4 % v/v): 100% | % Survival at 23° C. ([2]; 1-butanol 4 % v/v): 0% | % Survival at 0° C. ([2]; 1-butanol 5 % v/v): 0% | % Survival at 0° C. ([2]; 1-butanol 5.5 % v/v): 0% | % Survival at 0° C. ([2]; 1-butanol […] v/v): 100% | Concentration at which L. plantarum PN0512 cells were killed ([2]; 23° C.): 3.5 % v/v | Concentration at which L. plantarum PN0512 cells were killed ([2]; 37° C.): 2.5 % v/v
